Data published in patent publication EP4737450A1 (Longwood Pharmaceuticals (Hangzhou) Co., Ltd, priority 2023, dated 2025).
Like-named read-outs stand apart in the source and are kept apart here.

Molecular target: T1, plasma kallikrein (PKa) (Homo sapiens, UniProt P03952)
T1 construct: purchased R & D 2497-SE
Assay: Inhibitory activity against plasma kallikrein in vitro (fluorescence intensity enzyme assay, Pro-Phe-Arg-AMC substrate)
Type: biochemical
Details: Pro-Phe-Arg-AMC substrate
Experimental: Test of the inhibitory activities of the compounds of the present invention against plasma kallikrein (PKa), KLK1 and FXIa in vitro.
The final concentrations of enzyme protein and Pro-Phe-Arg-AMC in the reaction mixture were 10 nM and 60 µM, respectively. The starting concentration of the positive reference substance Avoralstat was 100 nM, 3-fold dilution, 10 + 0 dose. 0.05 µL of compound in 100% DMSO was delivered to a 384-well plate by an acoustic liquid delivery technique (Echo665; nanoliter range). Compound duplex test. […] IC50 values and nonlinear regression curve fitting were obtained using GraphPad Prism software.

[1] = plasma kallikrein enzyme assay, read-out: PKa IC50
[2] = PKa IC50, plasma kallikrein enzyme assay

T1 sequence (P03952 391-638 limits assumed): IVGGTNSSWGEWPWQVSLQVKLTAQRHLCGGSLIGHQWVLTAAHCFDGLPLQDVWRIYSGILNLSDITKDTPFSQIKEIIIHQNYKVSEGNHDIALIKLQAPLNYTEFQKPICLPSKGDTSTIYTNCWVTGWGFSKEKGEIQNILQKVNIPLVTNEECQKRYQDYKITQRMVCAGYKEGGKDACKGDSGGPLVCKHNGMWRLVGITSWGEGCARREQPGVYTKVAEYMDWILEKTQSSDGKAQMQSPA
T1 sequence (P03952 20-390 partner limits assumed): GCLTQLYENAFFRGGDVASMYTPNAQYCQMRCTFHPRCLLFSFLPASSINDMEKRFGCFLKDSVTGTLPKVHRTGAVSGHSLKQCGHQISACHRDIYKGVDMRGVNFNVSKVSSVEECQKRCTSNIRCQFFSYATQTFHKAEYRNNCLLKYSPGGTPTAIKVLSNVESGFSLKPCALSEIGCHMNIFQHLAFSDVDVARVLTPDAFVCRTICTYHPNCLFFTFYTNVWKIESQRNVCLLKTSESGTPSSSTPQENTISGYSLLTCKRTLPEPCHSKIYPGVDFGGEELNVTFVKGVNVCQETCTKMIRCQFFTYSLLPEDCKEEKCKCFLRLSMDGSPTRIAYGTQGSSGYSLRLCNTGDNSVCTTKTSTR

| SMILES | IC50 [1] [nM] | IC50 [2] [nM] |
| --- | --- | --- |
| N#Cc1cc(N2CC3C(C2)C3(F)F)ccc1Cn1cnc(C(=O)NC2CCc3cc(N)ncc32)n1 (single isomer, unassigned) [Compound 53] | > 100 | – |
| Cc1cc(N)nc(C)c1CNC(=O)c1nnc(Cc2cn3cc(C4CC4)ccc3n2)o1 [Compound 17] | 36.2 | – |
| COCc1nn(Cc2cn3cc(C4CC4)ccc3n2)cc1C(=O)NCc1c(C)cc(N)nc1C [Compound 21] | 2.98 | – |
| Cc1nc(N)nc(C)c1CNC(=O)c1ncn(Cc2ccc(Cn3cc(F)ccc3=O)cc2)n1 [Compound 26] | 699 | – |
| Cc1cc(N)nc(C)c1CNC(=O)c1nc(Cc2ccc(Cn3ccccc3=O)cc2)nn1C [Compound 29] | > 1000 | – |
| Nc1nnc(CNC(=O)c2cnn(Cc3ccc(Cn4ccccc4=O)cc3)c2)s1 [Compound 30] | > 1000 | – |
| Cc1nc(N)ncc1CNC(=O)c1ncn(Cc2ccc(Cn3cc(F)ccc3=O)cc2)n1 [Compound 31] | > 1000 | – |
| COc1ccnc(CNC(=O)c2ncn(Cc3ccc(Cn4cc(F)ccc4=O)cc3)n2)c1F [Compound 32] | > 100 | – |
| Nc1ncc(CNC(=O)c2cnn(Cc3ccc(Cn4ccccc4=O)cc3)c2)s1 [Compound 36] | 523 | – |
| Nc1cc2c(cn1)[C@H](NC(=O)c1ncn(Cc3cn4cc(C5CC5)ccc4n3)n1)CC2 [Compound 45] | > 100 | – |
| Nc1cc2c(cn1)[C@@H](NC(=O)c1ncn(Cc3cn4cc(C5CC5)ccc4n3)n1)CC2 [Compound 46] | > 100 | – |
| Nc1cc2c(cn1)C(NC(=O)c1ncn(Cc3c(F)c(F)c(Cn4ccccc4=O)c(F)c3F)n1)CC2 (stereo not drawn) [Compound 51] | > 100 | – |
| Cn1cnc2c1CC[C@H]2NC(=O)c1nn(Cc2ccc(Cn3ccccc3=O)cc2)cc1C(F)F [Compound 58] | 17.4 | – |
| COCc1cn(Cc2ccc(Cn3ccccc3=O)cc2)nc1C(=O)N[C@@H]1CCc2c1ncn2C [Compound 59] | > 100 | – |
| Cc1cc(N)nc(C)c1CNC(=O)c1ncn(Cc2ccc(-n3ccccc3=O)cc2)n1 [Compound 63] | 16.7 | – |
| COCc1nn(Cc2ccc(CN3CCCCC3=O)cc2)cc1C(=O)NCc1nccc(OC)c1F [Compound 77] | 62.9 | – |
| Cc1cc(N)nc(C)c1CNC(=O)c1ncn(Cc2ccc(CN3CCCCC3=O)cc2)n1 [Compound 78] | 3.72 | – |
| Cn1cnc2c1CC[C@H]2NC(=O)c1ncn(Cc2ccc(CN3CCCCC3=O)cc2)n1 [Compound 79] | > 100 | – |
| C#Cc1nn(Cc2ccc(Cn3ccccc3=O)cc2)cc1C(=O)NCc1c(C)cc(N)nc1C [Compound 81] | 77 | – |

| SMILES | IC50 [1] [nM] | IC50 [2] [nM] |
| --- | --- | --- |
| Nc1cc2c(cn1)[C@@H](NC(=O)c1ncn(Cc3ccc(Cn4ccccc4=O)cc3)n1)CO2 [Compound 82] | 26.6 | – |
| Cc1cc(N)nc(C)c1CNC(=O)c1nc(Cc2ccc(Cn3ccccc3=O)cc2)ns1 [Compound 84] | 64.7 | – |
| C#Cc1nn(Cc2ccc(Cn3ccccc3=O)cc2)cc1C(=O)NCc1nccc(OC)c1F [Compound 85] | 58.7 | – |
| COCc1nn(Cc2ccc(N3CC4C(C3)C4(F)F)cc2C#N)cc1C(=O)NCc1cc2cnccc2[nH]1 (stereo not drawn) [Compound 86] | 21.2 | – |
| COc1ccnc(CNC(=O)c2cc(Cc3ccc(Cn4ccccc4=O)cc3)cn2C)c1F [Compound 88] | 20.1 | – |
| COCc1nn(Cc2ccc(N3CCOCC3=O)cc2)cc1C(=O)NCc1nccc(OC)c1F [Compound 89] | > 100 | – |
| COc1ccnc(CNC(=O)c2cn(Cc3ccc(Cn4ccccc4=O)cc3)nc2C(F)(F)F)c1F [Compound 90] | 3.09 | – |
| COCc1nn(Cc2ccc(CC3CC3)cc2)cc1C(=O)NCc1nccc(OC)c1F [Compound 91, 1-(4-(cyclopropylmethyl)benzyl)-N-((3-fluoro-4-methoxypyridin-2-yl)methyl)-3-(methoxymethyl)-1H-pyrazole-4-carboxamide] | > 100 | – |
| COCc1nn(Cc2ccc(-n3ccccc3=O)cc2)cc1C(=O)NCc1nccc(OC)c1F [Compound 92] | > 100 | – |
| COCc1nn(Cc2ccc(-n3ccccc3=O)cc2)cc1C(=O)NC1CCc2c1ncn2C (stereo not drawn) [Compound 96] | > 100 | – |
| COCc1nn(Cc2ccc(-n3ccccc3=O)cc2)cc1C(=O)NCc1cc2ccncc2[nH]1 [Compound 97] | 503 | – |
| COCc1nn(Cc2ccc(Cn3ccc4ncccc43)cc2)cc1C(=O)NCc1nccc(OC)c1F [Compound 98] | 245 | – |
| Cc1cc(Cl)nc(C)c1CNC(=O)c1ncn(Cc2ccc(Cn3ccccc3=O)cc2)n1 [Compound 100] | > 100 | – |
| COCc1nn(Cc2ccc(CN3CCCCCC3)cc2)cc1C(=O)NCc1nccc(OC)c1F [Compound 102] | > 100 | – |
| COCc1nn(Cc2ccc(CN3CC(F)(F)C3)cc2)cc1C(=O)NCc1nccc(OC)c1F [Compound 103] | > 100 | – |
| COCc1nn(Cc2ccc(N3CC4C(C3)C4(F)F)cc2C#N)cc1C(=O)NCc1cn2c(n1)CNCC2 (stereo not drawn) [Compound 104] | > 100 | – |
| COCc1nn(Cc2ccc(-n3ccccc3=O)cc2)cc1C(=O)NCc1nc2c(s1)CNCC2 [Compound 107] | > 100 | – |
| COCc1nn(Cc2ccc(Cn3ccccc3=O)cc2)cc1C(=O)NCc1cc2cnccc2[nH]1 [Compound 108] | 36.8 | – |
| COCc1nn(Cc2ccc(N3CCOCC3=O)cc2)cc1C(=O)NCc1cn2c(n1)CNCC2 [Compound 112] | > 100 | – |

Other lines, results leading:

| IC50 [1] [nM] | IC50 [2] [nM] | SMILES |
| --- | --- | --- |
| > 100 | – | COCc1nn(Cc2ccc(Cn3ccccc3=O)cc2)cc1C(=O)NCc1c(C)cncc1C [Compound 114] |
| > 100 | – | O=C(NCc1cc2cnccc2[nH]1)c1cn(Cc2ccc(Oc3ccccc3)cc2)nc1C(F)(F)F [Compound 115] |
| > 1000 | – | COCc1nn(Cc2ccc(Oc3ccccc3)cc2)cc1C(=O)NCc1nccc(OC)c1F [Compound 117] |
| > 1000 | – | COCc1nn(Cc2ccc(Cn3ccccc3=O)cc2)cc1C(=O)NCc1cn2ccc(Cl)c(F)c2n1 [Compound 120] |
| 124 | – | O=C(NCc1cc2cnccc2[nH]1)c1nc(Cc2ccc(Cn3ccccc3=O)cc2)ns1 [Compound 122] |
| 29.5 | – | O=C(NCc1cc2cnccc2[nH]1)c1cn(Cc2ccc(Cn3ccccc3=O)cc2)nc1C(F)(F)F [Compound 123] |
| > 1000 | – | COc1ccnc(CNC(=O)c2cn(Cc3ccc(CN4CC(F)(F)C4)cc3)nc2C(F)(F)F)c1F [Compound 124] |
| 329 | – | COCc1nn(Cc2ccc(Oc3ccccc3)cc2)cc1C(=O)NCc1ccc2nccn2c1 [Compound 125] |
| 229 | – | COCc1nn(Cc2ccc(Cn3ccccc3=O)cc2)cc1C(=O)NCc1ccc2nccn2c1 [Compound 126] |
| 406 | – | COCc1nn(Cc2ccc(N3CC4C(C3)C4(F)F)cc2C#N)cc1C(=O)NCc1nc2c(s1)CNCC2 (stereo not drawn) [Compound 129] |
| 27.9 | – | CCn1cnc2c1CC[C@@H]2NC(=O)c1cn(Cc2ccc(Cn3ccccc3=O)cc2)nc1COC [Compound 131] |
| – | 7.29 | COCc1nn(Cc2ccc(Cn3ccccc3=O)cc2)cc1C(=O)NCc1nccc(SC)c1F [Compound 132] |
| 4.47 | – | N=C(N)c1ccc(CNC(=O)c2cn(Cc3ccc(Oc4ccccc4)cc3)nc2C(F)(F)F)cc1 [Compound 134] |
| 131 | – | COCc1nn(Cc2ccc(Cn3ccccc3=O)cc2)cc1C(=O)NCc1cc2ccncc2n1C [Compound 135] |
| 36.2 | – | COCc1nn(Cc2ccc(Cn3ccccc3=O)cc2)cc1C(=O)NCc1[nH]c2cnccc2c1Cl [Compound 136] |
| > 1000 | – | COCc1nn(Cc2ccc(CN3C(=O)C4(CC4)c4ccc(F)cc43)cc2)cc1C(=O)NCc1nccc(OC)c1F [Compound 138] |
| 12.6 | – | COCc1nn(Cc2ccc(Cn3ccccc3=O)cc2)cc1C(=O)NCc1cc2cnccc2n1C [Compound 139] |

| IC50 [1] [nM] | IC50 [2] [nM] | SMILES |
| --- | --- | --- |
| 78 | – | COCc1nn(Cc2ccc(Cn3c(=O)sc4ccccc43)cc2)cc1C(=O)NCc1nccc(OC)c1F [Compound 140] |
| > 1000 | – | COCc1nn(Cc2ccc(Oc3ccccc3)cc2)cc1C(=O)NCc1ccn2ccnc2c1 [Compound 141] |
| – | 25.9 | COCc1nn(Cc2ccc(Cn3ccccc3=O)cc2)cc1C(=O)NCc1ncc2c(n1)CNC2 [Compound 144] |
| > 1000 | – | COCc1nn(Cc2ccc(-n3ccccc3=O)cc2)cc1C(=O)NCc1cn2c(n1)CNCC2 [Compound 145] |
| 347 | – | Cc1[nH]c(C(=O)NCc2cc3cnccc3[nH]2)c(C)c1Cc1ccc(Cn2ccccc2=O)cc1 [Compound 148] |
| 544 | – | COc1ccnc(CNC(=O)c2[nH]cc(Cc3ccc(Cn4ccccc4=O)cc3)c2C)c1F [Compound 151] |
| 594 | – | COCc1nn(Cc2ccc(Cn3ccccc3=O)cc2)cc1C(=O)NCc1nc2c(s1)CNCC2 [Compound 152] |
| 68.8 | – | COCc1nn(Cc2ccc(Cn3ccccc3=O)cc2)cc1C(=O)NCc1c(Cl)c2ccncc2n1C [Compound 154] |
| – | 669 | O=C(NCc1ncc2c(n1)CNC2)c1cn(Cc2ccc(Cn3ccccc3=O)cc2)nc1C(F)(F)F [Compound 156] |
| 93.8 | – | COCc1nn(Cc2ccc(Cn3c(=O)ccc4ccccc43)cc2)cc1C(=O)NCc1nccc(OC)c1F [Compound 159] |
| 413 | – | COCc1nn(Cc2ccc(Cn3c(=O)sc4cccc(F)c43)cc2)cc1C(=O)NCc1nccc(OC)c1F [Compound 160] |
| 12.7 | – | COCc1nn(Cc2ccc(Cn3ccccc3=O)cc2)cc1C(=O)NCc1cc2cnccc2n1C [Compound 161] |
| 8.68 | – | COCCOCc1nn(Cc2ccc(Cn3ccccc3=O)cc2)cc1C(=O)NCc1nccc(OC)c1F [Compound 162] |
| 26.3 | – | COc1ccnc(CNC(=O)c2cn(Cc3ccc(Cn4ccccc4=O)cc3)nc2COCC(=O)N(C)C)c1F [Compound 164] |
| 34.5 | – | COc1ccnc(CNC(=O)c2cn(Cc3ccc(Cn4ccccc4=O)cc3)nc2-c2cnc(O)nc2)c1F [Compound 165] |
| 4.59 | – | Cc1cnn(C)c1-c1nn(Cc2ccc(Cn3ccccc3=O)cc2)cc1C(=O)NCc1nccc(N(C)C)c1F [Compound 166] |
| 11.9 | – | COc1ccnc(CNC(=O)c2cn(Cc3ccc(Cn4ccccc4=O)cc3)nc2CN2CCCC2=O)c1F [Compound 169] |
